For one assay, the target named is HLA-A02:01 (Homo sapiens, UniProt P04439, D140Y/D185E/D98H/E176V/E277Q/G131W/G231S/I119V/I121R/I166T/I218V/L300P/L318F/N151K/N90K/P208A/P217A/Q86G/Q94H/R138H/R169H/T345S). The assay is described as follows: Peptide-MHC tetramer exchange assay (competitive peptide binding, QuickSwitch Quant HLA-A02:01 tetramer). As to conditions: percentage of replacement of the exchangeable peptide by the test peptide.

For assay [1], the system named is CD8+ T cell cultures / PBMCs from healthy donors. Nature of the assay: IFN-gamma ELISpot assay.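 On Donor2 value: Spot-forming units per 100000 cells.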 The format is cell-based, human. Also on record: Donor1_value / Donor3_value / Donor4_value: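 Spot-forming units per 100000 cells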. As to conditions: IFN-gamma ELISpot result. An excerpt:
We experimentally assessed the binding affinity of the 38 peptides through a competitive peptide binding assay (STAR Methods). […] Subsequently, we investigated the immunogenicity of these peptides using an interferon (IFN)-gamma ELISpot assay (STAR Methods). […] These peptides represent promising candidates for further investigation as potential immunotherapy targets. Peripheral blood mononuclear cells (PBMCs) from healthy donors were isolated at Zhongshan Hospital, Fudan University using Lymphoprep (07851, Stemcell) and cultured with ImmunoCult-XF T cell Expansion Medium (10981, Stemcell) supplemented with human recombinant IL-2 (78036, Stemcell). ImmunoCult Human CD3/CD28 T cell Activator (10971, Stemcell) was added to the cell suspension, which was then incubated for 3 days. Subsequent expansion of the cell suspension was carried out every two days as per manufacturer's instructions. The entire process was approved by the Institutional Review Board of Zhongshan Hospital, Fudan University (B2024-412). ELISPOT plates (2110003, […]) were pretreated with PBS before dispensing cell suspensions (nearly 1×10^5 cells) with synthesized peptide (10 μg/mL) into each well. After incubation at 37°C in a CO2 incubator for 20 h, plates were washed and incubated with anti-human IFN-γ followed by Streptavidin-HRP. Staining of Streptavidin-HRP was performed using AEC solution, and the reaction was stopped by rinsing with cold tap water. ELISPOT plates were scanned and counted using an ImmunoSpot plate reader and associated software from Cellular Technologies, Ltd.

This is an account of results in article PMC11705763, “Tumor-associated antigen prediction using a single-sample gene expression state inference algorithm” (Cell Reports Methods, 2024).

On HLA-A02:01, YRLADHVGCV registered a Q1_Replacement_Percentage of 56.3%. Besides, in assay [1] (healthy donor 1), the Donor1_value amounted to 0. In assay [1] (healthy donor 2), this sequence yielded a Donor2_value of 30. The Donor3_value in assay [1] (healthy donor 3) stood at 9. This sequence also returned a Donor4_value in assay [1] (healthy donor 4) of 0.
